{"source": "patent US7538221B2", "about": "“Polymorphs of racemic, dextrorotatory, and levorotatory enantioners of 1-cyclopropyl-6-fluoro-8-methoxy-7-(4-amino-3,3-dimethylpiperidin-1-yl)-1,4-dihydro-4-oxo-quinoline-3-carboxylic acid hydrochloride and mesylate salts” (The Company of Wockhardt Limited, priority 2003, dated 2009)", "key": {"[1]": {"assay": "Percent relative humidity stability study", "type": "physicochemical"}, "[2]": {"assay": "Aqueous solubility of salt polymorphs", "details": "water, 25 °C, Aqueous Solubility at 25-30° C. (mg/ml)"}, "[3]": {"details": "solid kept for 20 days in 78% relative humidity"}}, "note": "Where two headings read alike, the source gives them in different places."}
{"molecule": "COc1c(N2CCC(N)C(C)(C)C2)c(F)cc2c(=O)c(C(=O)O)cn(C3CC3)c12.Cl", "note": "(racemic) [(±) A-1, (±)-1-cyclopropyl-6-fluoro-8-methoxy-7-(4-amino-3,3-dimethylpiperidin-1-yl)-1,4-dihydro-4-oxo-quinoline-3-carboxylic acid hydrochloride]", "values": [{"measurement": "polymorph change on storage (Powder X-ray Diffraction spectrum and aqueous solubility change)", "setting": "[1]; [3]", "result": "changed to polymorph A-2"}]}
{"molecule": "COc1c(N2CCC(N)C(C)(C)C2)c(F)cc2c(=O)c(C(=O)O)cn(C3CC3)c12.Cl", "note": "(racemic) [(±) A-3, (±)-1-cyclopropyl-6-fluoro-8-methoxy-7-(4-amino-3,3-dimethylpiperidin-1-yl)-1,4-dihydro-4-oxo-quinoline-3-carboxylic acid hydrochloride]", "values": [{"measurement": "polymorph change on storage (Powder X-ray Diffraction spectrum and aqueous solubility change)", "setting": "[1]; [3]", "result": "changed to polymorph A-2"}]}
{"molecule": "COc1c(N2CCC(N)C(C)(C)C2)c(F)cc2c(=O)c(C(=O)O)cn(C3CC3)c12.CS(=O)(=O)O", "note": "(racemic) [(±) B-1, (±)-1-cyclopropyl-6-fluoro-8-methoxy-7-(4-amino-3,3-dimethylpiperidin-1-yl)-1,4-dihydro-4-oxo-quinoline-3-carboxylic acid mesylate]", "values": [{"measurement": "solubility", "setting": "[2]", "result": "80 to 200", "unit": "mg/mL"}]}
{"molecule": "COc1c(N2CC[C@@H](N)C(C)(C)C2)c(F)cc2c(=O)c(C(=O)O)cn(C3CC3)c12.Cl", "note": "[(+) A-1, R-(+)-1-cyclopropyl-6-fluoro-8-methoxy-7-(4-amino-3,3-dimethylpiperidin-1-yl)-1,4-dihydro-4-oxo-quinoline-3-carboxylic acid hydrochloride]", "values": [{"measurement": "polymorph change on storage (Powder X-ray Diffraction spectrum and aqueous solubility change)", "setting": "[1]; [3]", "result": "changed to polymorph A-2"}]}
{"molecule": "COc1c(N2CC[C@@H](N)C(C)(C)C2)c(F)cc2c(=O)c(C(=O)O)cn(C3CC3)c12.Cl", "note": "[(+) A-2, R-(+)-1-cyclopropyl-6-fluoro-8-methoxy-7-(4-amino-3,3-dimethylpiperidin-1-yl)-1,4-dihydro-4-oxo-quinoline-3-carboxylic acid hydrochloride]", "values": [{"measurement": "thermodynamic stability of polymorph", "setting": "[1]; from percent relative humidity stability study and aqueous solubility data", "result": "thermodynamically stable"}]}
{"molecule": "COc1c(N2CC[C@@H](N)C(C)(C)C2)c(F)cc2c(=O)c(C(=O)O)cn(C3CC3)c12.Cl", "note": "[(+) A-3, R-(+)-1-cyclopropyl-6-fluoro-8-methoxy-7-(4-amino-3,3-dimethylpiperidin-1-yl)-1,4-dihydro-4-oxo-quinoline-3-carboxylic acid hydrochloride]", "values": [{"measurement": "polymorph change on storage (Powder X-ray Diffraction spectrum and aqueous solubility change)", "setting": "[1]; [3]", "result": "changed to polymorph A-2"}]}
{"molecule": "COc1c(N2CC[C@@H](N)C(C)(C)C2)c(F)cc2c(=O)c(C(=O)O)cn(C3CC3)c12.CS(=O)(=O)O", "note": "[(+) B-1, R-(+)-1-cyclopropyl-6-fluoro-8-methoxy-7-(4-amino-3,3-dimethylpiperidin-1-yl)-1,4-dihydro-4-oxo-quinoline-3-carboxylic acid mesylate]", "values": [{"measurement": "solubility", "setting": "[2]", "result": "80 to 200", "unit": "mg/mL"}]}
{"molecule": "COc1c(N2CC[C@H](N)C(C)(C)C2)c(F)cc2c(=O)c(C(=O)O)cn(C3CC3)c12.Cl", "note": "[(−) A-1, S-(−)-1-cyclopropyl-6-fluoro-8-methoxy-7-(4-amino-3,3-dimethylpiperidin-1-yl)-1,4-dihydro-4-oxo-quinoline-3-carboxylic acid hydrochloride]", "values": [{"measurement": "polymorph change on storage (Powder X-ray Diffraction spectrum and aqueous solubility change)", "setting": "[1]", "result": "changed to polymorph A-3"}]}
{"molecule": "COc1c(N2CC[C@H](N)C(C)(C)C2)c(F)cc2c(=O)c(C(=O)O)cn(C3CC3)c12.Cl", "note": "[(−) A-2, S-(−)-1-cyclopropyl-6-fluoro-8-methoxy-7-(4-amino-3,3-dimethylpiperidin-1-yl)-1,4-dihydro-4-oxo-quinoline-3-carboxylic acid hydrochloride]", "values": [{"measurement": "polymorph change on storage (Powder X-ray Diffraction spectrum and aqueous solubility change)", "setting": "[1]", "result": "changed to polymorph A-3"}, {"measurement": "thermodynamic stability of polymorph", "setting": "[1]", "result": "thermodynamically stable"}]}
{"molecule": "COc1c(N2CC[C@H](N)C(C)(C)C2)c(F)cc2c(=O)c(C(=O)O)cn(C3CC3)c12.Cl", "note": "[(−) A-3, S-(−)-1-cyclopropyl-6-fluoro-8-methoxy-7-(4-amino-3,3-dimethylpiperidin-1-yl)-1,4-dihydro-4-oxo-quinoline-3-carboxylic acid hydrochloride]", "values": [{"measurement": "thermodynamic stability of polymorph", "setting": "[1]", "result": "thermodynamically stable"}]}
{"molecule": "COc1c(N2CC[C@H](N)C(C)(C)C2)c(F)cc2c(=O)c(C(=O)O)cn(C3CC3)c12.Cl", "note": "[(−) A-4, S-(−)-1-cyclopropyl-6-fluoro-8-methoxy-7-(4-amino-3,3-dimethylpiperidin-1-yl)-1,4-dihydro-4-oxo-quinoline-3-carboxylic acid hydrochloride]", "values": [{"measurement": "polymorph change on storage (Powder X-ray Diffraction spectrum and aqueous solubility change)", "setting": "[1]", "result": "changed to polymorph A-3"}]}
